Laboratory results as given in article PMC6148246, “HS-1371, a novel kinase inhibitor of RIP3-mediated necroptosis” (Experimental & Molecular Medicine, 2018).

Experiments:
HT-29 cells = test: TRAIL-induced necroptosis in HT-29 cells (immunoblot, MTT); assay type: cell-based
Procedure: HT-29 cells expressing RIP3 shRNA, MLKL shRNA, or non-silencing control were analyzed by western blotting (upper panel), and these cells were treated with TSZ (6 h for immunoblotting, 24 h for cell death assay). Cell lysates were analyzed by immunoblotting (middle panel), and cell viability was analyzed by MTT assay (bottom panel). The results are presented as means ± SEM. *P < 0.05, **P < 0.01, ***P < 0.001. b HS-1371 protected cells not only from TNF-induced necroptosis but also from TRAIL-induced necroptosis. HT-29 cells were pretreated with indicated concentrations of HS-1371 and then treated with TRAIL + Smac + zVAD (6 h for immunoblotting, 24 h for cell death assay). Cell lysates were analyzed by immunoblotting, and cell viability was analyzed by MTT assay or phase-contrast microscopy. The results are presented as means ± SEM. *P < 0.05, **P < 0.01, ***P < 0.001. c, d HS-1371 had no effect on TNF-induced apoptosis. HT-29 cells were pretreated with HS-1371 (5 μM) for 2 h and then treated with TC or TS (TNF + either cycloheximide or SMAC mimetic, hereafter referred to as TC or TS, 6 h for immunoblotting, 24 h (TC) or 36 h (TS) for cell death assay). Cell lysates were analyzed by immunoblotting, and cell viability was analyzed by MTT assay (TC) or CellTiter-Glo Luminescent Cell Viability Assay Kit (TS). The results are presented as means ± SEM. *P < 0.05, **P < 0.01, ***P < 0.001 […]

NF-κB pathway = test: TNF- or LPS-induced NF-κB signaling (immunoblot); assay type: cell-based
Procedure: Supplementary Figure 1. Identification of HS-1371 as a novel RIP3 kinase inhibitor.
Detailed interaction patterns in the region surrounded by DFG motif and αC helix of RIP3.
Hydrogen bonds are indicated with dotted lines.
Supplementary Figure 2. The effect of HS-1371 was compared with GSK’872.
(a) Overexpression of RIP3 could induce S227 phosphorylation without stimuli. HEK293T cells were transiently transfected with Flag-hRIP3, and cells were treated with or without DAB for incubation periods. After cells were harvested, cell lysates were analyzed by […]
kinase inhibitor. HT-29 cells were treated with HS -1371 or GSK’872 indicated concentrations for 9 h, and cell lysates were analyzed by immunoblotting.
(c) Cytotoxicity of HS-1371 was compared with GSK’872. HT-29 cells were treated with 2 kinase inhibitors for 24 h and cell viability was analyzed by MTT assay.
(d) Inhibition of MLKL phosphorylation by HS-1371 was compared with other two RIP3 kinases inhibitors, DAB (5 μM) and GSK’872 (5 μM). […] Cell lysates were analyzed by […]
HeLa, L929, and MEF cells were pretreated with HS-1371 (5 μM) for 2 h, and treated with TNF (30 ng/mL) for indicated time points. Cell lysates were analyzed by immunoblotting. […]
(a) RAW264.7 cells were treated with LPS (1 μg/mL) for indicated time points and cell lysates were analyzed by immunoblotting. […]

293T cells = test: RIP3 overexpression-induced cell death in 293T cells (PI staining); assay type: cell-based, human; conditions: 293T transfected with Flag-RIP3, 20 h
Procedure: Fig. 6 Possibility of HS-1371 as a drug for necroptosis-related diseases. a, b HT-29 cells were pre- or post-treated with HS-1371 for indicated time points, and RIP3 phosphorylation (a) and cell death (b) were measured by western blotting or MTT assay. Data are presented as means ± SEM. *P < 0.05, **P < 0.01, ***P < 0.001. c HT-29 cells were treated with TSZ and then post-treated with HS-1371 for indicated time points, and then cell lysates were analyzed by immunoblotting (upper panel). Cell viability was analyzed by MTT assay. Data are presented as means ± SEM. *P < 0.05, **P < 0.01, ***P < 0.001. d Cells were treated with the same conditions as (c), and cell lysates were immunoprecipitated with anti-RIP3 antibody. […] 293T cells were transfected with Flag vector or Flag-RIP3, and 20 h after transfection, cells were stained with PI. PI-positive cells were analyzed by phase-contrast fluorescence microscopy

Cc1ccc(Oc2ccnc3cc(-c4cnn(C5CCNCC5)c4)ccc23)cc1 [HS-1371, 7-(1-(Piperidin-4-yl)-1H-pyrazol-4-yl)-4-(p-tolyloxy)quinoline]
TRAIL-induced S227 phosphorylation of RIP3 and RIP3-mediated phosphorylation of MLKL (HT-29 cells; HT-29, TRAIL + Smac mimetic + zVAD 6 h, dose-dependent): decreased
TRAIL-induced cytotoxicity (HT-29 cells; HT-29, TRAIL + Smac mimetic + zVAD 24 h, MTT): reduction in cytotoxicity
TNF-induced NF-κB signaling (NF-κB pathway; HT-29, HeLa(RIP3), L929, MEF, 5 μM pretreated 2 h, TNF 30 ng/mL): did not affect
LPS-induced induction of the NF-κB pathway (NF-κB pathway; data not shown): not altered
cell death by RIP3 ectopic expression (PI-positive staining) (293T cells): completely blocked
